Counter-ions that a name gives are not always drawn.
Columns and labels:
[1] = system: SK-Mel-239 vemurafenib-resistant clone cells; test: SK-Mel-239 vemurafenib-resistant tumors in NOD Scid gamma mice; type: in vivo, human; settings: GW3965 diet 100 mg/kg
[2] = system: DNAJA4; test: DNAJA4 expression by qRT-PCR in parental MeWo cells; type: cell-based, human; settings: GW3965 48 hours
Procedure: Total RNA was extracted from various cell lines using the miRvana kit (AM1560, Applied Biosystems, Austin, Tex.). The expression levels of mature miRNAs were quantified using the Taqman miRNA expression assay (4427975-0002228, Applied Biosystems). RNU44 was used as an endogenous control for normalization. For mRNA expression analyses, 600 ng of total RNA was reverse transcribed using the cDNA First-Strand Synthesis Kit (18080-051, Invitrogen), and roughly 200 ng of the resulting cDNA was then mixed with SYBR green PCR Master Mix (4309155, Applied Biosystems) and the appropriate primers. Each reaction was performed in quadruplicate, and mRNA expression was quantified by performing real-time PCR amplification using an ABI Prism 7900HT Real-Time PCR System (Applied Biosystems). GAPDH was used as an endogenous control for normalization. The following primers were used: […]

[3] = system: MDA-468 human breast cancer cells; test: MDA-468 breast cancer tumor growth in Nod Scid gamma mice; type: in vivo; settings: GW3965-supplemented diet 75 mg/kg/day
Procedure: The mice were assigned to a control diet treatment or a GW3965-supplemented diet treatment (75 mg/kg/day) two days prior to injection of the cancer cells.

[4] = system: MeWo human melanoma cells; test: Tumor histochemistry (MECA-32, Ki-67, cleaved caspase-3) of MeWo tumors; type: in vivo; settings: GW3965 diet 20 mg/kg, 35 days
Excerpt: Animals were intracardially perfused with PBS followed by 4% paraformaldehyde (PFA). Fixed lungs were embedded in paraffin and sectioned into 5-jam-thick increments. Macroscopic lung metastatic nodules were visualized by H&E staining. For analysis of tumor endothelial cell content, proliferation, and apoptosis, primary tumor paraffin-embedded sections were stained with antibodies against MECA-32 (Developmental Studies Hybridoma Bank, University of Iowa), KI-67 (ab15580, Abcam), and cleaved caspase-3 (9661, Cell Signaling), respectively.
Tumors were excised from mice and fixed in 4% paraformaldehyde at 4° C. for 48 hours. Then, tumors were paraffin-embedded and sectioned into 5-μm-thick increments. For endothelial cell content analysis in tumors, tumor sections were stained with a primary antibody against the mouse endothelial cell marker MECA-32 (Developmental Studies Hybridoma Bank, The University of Iowa, IA) and counterstained with DAPI nuclear stain. To determine tumor cell proliferation and apoptosis, tumor sections were stained with antibodies against the proliferative marker Ki-67 (Abcam, ab15580, Cambridge, Mass.) and the apoptotic marker cleaved caspase-3 (9661, Cell Signaling, Danvers, Mass.), respectively. Various Alexa Flour dye-conjugated secondary antibodies were used to detect primary antibodies. […] Endothelial cell content density and tumor proliferation rate were quantified by calculating the average percentage of MECA-32 or Ki-67 positively-staining area out of the total tumor area. Tumor apoptosis was measured by counting the number of cleaved caspase-3 expressing cells per given tumor area.

[5] = system: Tyr::CreER; B-RafV600E/+; Ptenlox/+ and Tyr::CreER; B-RafV600E/+; Ptenlox/lox mice; test: Genetically-initiated model of melanoma progression; type: in vivo, mouse
Procedure: The Tyr::CreER; B-Raf^V600E/+; Pten^lox/+/Tyr::CreER; B—Raf^V600E/+; Pten^lox/lox conditional model of melanoma progression was previously established and characterized by Dankort et al. (2009). Briefly, melanoma in these mice was induced at 6 weeks of age by intraperitoneally injecting 4-HT (H6278, 70% isomer, Sigma-Aldrich, St Louis, Mo.) at 25 mg/kg administered in peanut oil on three consecutive days. The 4-HT stock solution was prepared by dissolving it in 100% EtOH at 50 mg/mL by heating at 45° C. for 5 min and mixing. Once dissolved, the stock 4-HT solution was then diluted by 10-fold in peanut oil, yielding a 5 mg/mL 4-HT working solution that was then injected into mice. After the first 4-HT injection, mice were blindedly assigned to receive either a control diet or a diet supplemented with GW3965 (100 mg/kg). Mice were examined three times a week for the presence and progression of melanoma lesions. At day 35, dorsal skin samples were harvested from control-treated and GW3965-treated mice, fixed in 4% PFA and photographed at 10×. The percentage of pigmented melanoma lesion area out of the total skin area was quantified using ImageJ. For survival analyses, mice were monitored daily for melanoma progression and euthanized according to a standard body condition score, taking into account initial signs of moribund state and discomfort associated with the progression of melanoma burden. Post-mortem, the lungs, brains, and salivary glands were harvested and examined for the presence of macroscopic melanoma lesions.

[6] = system: endothelial cells; test: Endothelial recruitment by breast, renal cell and pancreatic cancer cells with ApoE; type: cell-based
[7] = system: MeWo-LM2 cells; test: Lung metastatic colonization by MeWo-LM2 cells in NOD-SCID mice; type: in vivo, human; settings: cells pre-incubated with recombinant ApoE 100 μg/mL for 24 hours before i.v. injection
Procedure: After 8 hours, the transfection media was replaced with fresh media. After 48 hours, 1×10^5 cells were injected intravenously into NOD-SCID mice to assess lung metastatic colonization or through intracardiac injection into athymic nude mice to assess systemic metastasis. For cell invasion and endothelial recruitment in vitro assays, the cells were used 96 hours post-transfection.

[8] = system: HUVEC's; test: Endothelial migration and chemotaxis assays (cancer cell-free); set-up: species or system human; settings: trans-well assay and gradient-based chemotactic assay
Procedure: Serum-starved HUVEC's were pulsed with Cell Tracker Red CMTPX dye for 45 minutes and seeded into HTS Fluoroblock trans-well inserts at a concentration of 1×10^5 HUVEC's in 0.5 mL starvation media per each insert. The assay was allowed to proceed for 16-18 hours at 37° C., and the inserts were processed and analyzed as described above (See Matrigel Invasion Assay).
HUVEC's were serum-starved in 0.2% FBS EGM-2 media for 16 hours and labeled with Cell Tracker Red CMTPX dye for 45 minutes. Meanwhile, the indicated amounts (1-5 jag) of recombinant human ApoE3 or BSA were mixed with 250 μL of matrigel (356231, BD Biosciences) and allowed to solidify at the bottom of a 24-well plate for 30 min. 250 μL of HUVEC EGM-2 media containing 0.2% FBS was then added to each matrigel-coated well, and […] HTS Fluoroblock inserts were fitted into each well. 1×10^5 HUVEC's, resuspended in 0.5 mL of starvation media, were seeded into each insert and allowed to migrate along the matrigel gradient for 16-18 hours at 37° C. Upon completion of the assay, the inserts were mounted on slides and analyzed as described above (See Matrigel Invasion Assay).

Row | Molecule | suppression of tumor growth [1] | survival of mice bearing vemurafenib-resistant melanoma burden [1] | expression of DNAJA4 [2] | breast cancer tumor size [3] | decrease in the number of actively proliferating tumor cells ([4]; Ki-67) | reduction in the endothelial cell content of tumors ([4]; MECA-32) | number of apoptotic cells ([4]; cleaved caspase-3) | number of lymphatic metastases detected post-mortem ([5]; Ptenlox/lox mice, GW3965 100 mg/kg) | tumor progression ([5]; oral, GW3965 diet 100 mg/kg after melanoma initiation) | overall survival times ([5]; oral, GW3965 diet 100 mg/kg, Ptenlox/+ and Ptenlox/lox) | endothelial recruitment [6] | suppression of metastatic colonization [7] | endothelial migration [8]
1 | O=C(O)Cc1cccc(OCCCN(Cc2cccc(C(F)(F)F)c2Cl)CC(c2ccccc2)c2ccccc2)c1 [GW3965 2, 3-[3-[N-(2-Chloro-3-trifluoromethylbenzyl)-(2,2-diphenylethyl)amino]propyloxy] phenylacetic acid hydrochloride] | 72% | significantly prolonged | increased | significant reduction | 23% | roughly 2 fold | without a change | decrease | attenuated | significantly extended |  |  | 
2 | recombinant human ApoE: recombinant human ApoE3 (4696, BioVision) |  |  |  |  |  |  |  |  |  |  | inhibited | over 300 fold | sufficient to inhibit

From patent US10945978B2, “Treatment and diagnosis of melanoma” (The Rockefeller University, priority 2012, dated 2021)
